From PubChem BioAssay AID1508612

Assay: passive permeability, PAMPA, ADME assay (AID 1508612)
Settings: pH 7.4, 30.0 min, 50.0 µM

Fc1cc(Nc2nc(-c3ccncc3)nc3ccccc23)ccc1-c1cccnc1
Papp: 5.4 ×10⁻⁶ cm/s

CCOC(=O)C1CCN(c2ncc(-c3ccc4c(c3)OCCCO4)s2)CC1
Papp: > 1000 ×10⁻⁶ cm/s

COc1cc2c(c(OC)c1OC)-c1ccc(SC)c(=O)cc1C(N)CC2 (stereo not given)
Papp: > 1000 ×10⁻⁶ cm/s

Cc1ccc(S(=O)(=O)Nc2cnccc2C(=O)Nc2nc(-c3ccccc3)cs2)cc1
Papp: 724 ×10⁻⁶ cm/s

O=c1cc(CSc2ccc(Cl)cc2)nc(-c2ccccn2)[nH]1
Papp: > 1000 ×10⁻⁶ cm/s

Cc1ccc(-c2cc(C(=O)Nc3ccc(-c4noc(=O)[nH]4)cc3)c3ccccc3n2)cc1C
Papp: 3 ×10⁻⁶ cm/s

Cc1cnccc1-c1nc(Nc2ccc(F)c(F)c2)c2ccccc2n1
Papp: 31.1 ×10⁻⁶ cm/s

CCCc1nnc(NC(=O)c2nc(S(=O)(=O)Cc3ccc(C)cc3)ncc2Cl)s1
Papp: 89.4 ×10⁻⁶ cm/s

Fc1ccc(CNc2ncnc3onc(-c4ccc(F)cc4)c23)cc1
Papp: > 1000 ×10⁻⁶ cm/s

C[C@@H](NC(=O)c1ncnc(N)c1Cl)c1ncc(C(=O)Nc2cc(C(F)(F)F)c(Cl)cn2)s1
Papp: > 1000 ×10⁻⁶ cm/s

O=C(Nc1ccc(Oc2ccnc3[nH]ccc23)c(F)c1)c1cccn(-c2ccc(F)cc2)c1=O
Papp: 407 ×10⁻⁶ cm/s

Fc1ccc(Nc2nc(-c3ccncc3F)nc3ccccc23)cc1F
Papp: 325 ×10⁻⁶ cm/s

COc1cc2ncnc(Nc3ccc(Oc4ccccc4)cc3)c2cc1OC
Papp: > 1000 ×10⁻⁶ cm/s

O=C(Nc1ccc(OC(F)(F)Cl)cc1)c1cnc(N2CC[C@@H](O)C2)c(-c2ccn[nH]2)c1
Papp: 14.6 ×10⁻⁶ cm/s

NC(=O)C1CCN(c2nc(-c3ccc(OC(F)(F)F)cc3)cs2)CC1
Papp: 104 ×10⁻⁶ cm/s

COc1ccc(NC(=O)c2cccnc2C)cc1S(=O)(=O)Nc1ccc(Br)cc1
Papp: 522 ×10⁻⁶ cm/s

COC(=O)CNC(=O)c1nc(-c2ccc([S+](C)(=O)[O-])cc2)c2cnccn12
Papp: 9.67 ×10⁻⁶ cm/s

CC(C)(C)OC(=O)N[C@@H](Cc1ccc(OS(=O)(=O)c2cccc3cnccc23)cc1)C(=O)N1CCCN(C(=O)OC(C)(C)C)CC1
Papp: 818 ×10⁻⁶ cm/s

CC(=O)N1CCC2(CCCN(c3ccc(-c4ccccc4)cc3)C2)CC1
Papp: > 1000 ×10⁻⁶ cm/s

Cc1cc(-c2nnc3n2CCCCC3)c(C)n1-c1ccc(C#N)cc1
Papp: 215 ×10⁻⁶ cm/s

Cn1nnnc1Sc1ncnc2scc(-c3cc4ccccc4o3)c12
Papp: 936 ×10⁻⁶ cm/s

CCS(=O)(=O)c1nc(-c2ccc(Cl)cc2)cc(C(F)(F)F)n1
Papp: 975 ×10⁻⁶ cm/s

CN(C)[C@@H]1CCN(c2cccc(Nc3nn4c(=O)c5ccccc5nc4s3)c2)C1
Papp: 125 ×10⁻⁶ cm/s

COc1ccc(Nc2cc3c(nc2OC)nc(CCc2ccccc2)n3C)cn1
Papp: > 1000 ×10⁻⁶ cm/s

O=C(CNC(=O)c1cnccn1)NC1CCCc2c1[nH]c1ccc(Cl)cc21 (stereo not given)
Papp: > 1000 ×10⁻⁶ cm/s

COc1ccc(NC(=O)c2c(C)cccc2C)cc1[S+](=O)([O-])N1CCCCC1
Papp: 548 ×10⁻⁶ cm/s

CNC(=O)c1ccc(-c2cnc3cnc(C(=O)N(C)c4ccc(Cl)cc4)cn23)cc1
Papp: 120 ×10⁻⁶ cm/s

N#Cc1cccc(S(=O)(=O)Nc2cnccc2C(=O)Nc2nc(-c3ccccc3)cs2)c1
Papp: 189 ×10⁻⁶ cm/s

NC(=O)C1CCN(c2nc(-c3ccc(N)cc3)cs2)CC1
Papp: 87.1 ×10⁻⁶ cm/s

COC(=N)c1nc2ccc3ncnc(Nc4ccc(F)cc4Br)c3c2s1
Papp: 28 ×10⁻⁶ cm/s

O=C(c1nc(-c2cccnc2)c2ccccn12)N1CCN(c2ncccn2)CC1
Papp: > 1000 ×10⁻⁶ cm/s

CC1=C(C(=O)Nc2nc3ccccc3s2)C(c2[nH]ncc2Cl)N=C(Nc2nc3ccccc3o2)N1 (stereo not given)
Papp: 6 ×10⁻⁶ cm/s

O=c1c2ccccc2nc(/C=C/c2cccnc2)n1Cc1ccccc1
Papp: > 1000 ×10⁻⁶ cm/s

Fc1ccc(Nc2nccc(-c3ccncc3)n2)cc1F
Papp: > 1000 ×10⁻⁶ cm/s

COc1cc(Cl)c(C)cc1NS(=O)(=O)c1c(C)nc2sccn2c1=O
Papp: 787 ×10⁻⁶ cm/s

COc1cccc(Nc2nc(-c3ccncc3)nc3ccccc23)c1
Papp: > 1000 ×10⁻⁶ cm/s

Cc1noc(C)c1-c1cc(-c2ccc3c(c2)C(=O)NC3)cn2cncc12
Papp: 143 ×10⁻⁶ cm/s

Cc1cc(C)c(C(=O)Nc2cccc([S+](=O)([O-])N3CCCCCC3)c2)[nH]1
Papp: 990 ×10⁻⁶ cm/s

COc1cc(O)c([C@H](CC(=O)N2CC(C)CC(C)C2)c2ccc3c(c2)OCO3)c(OC)c1 (stereo not given in full)
Papp: > 1000 ×10⁻⁶ cm/s

CS(=O)(=O)c1ccc(-c2cnc(NCc3ccco3)n3cnnc23)cc1
Papp: 16.7 ×10⁻⁶ cm/s

COCCn1ccc2c(C3=CCOCC3)nc(-c3ccc4c(c3)CNC4=O)cc21
Papp: 71.7 ×10⁻⁶ cm/s

CC(C)(C)c1ccc(S(=O)(=O)N2CCC(c3ccncc3)CC2)cc1
Papp: 320 ×10⁻⁶ cm/s

O=C1NC(=S)NC(=O)C1=Cc1cccn1-c1ccc(O)cc1
Papp: 44.1 ×10⁻⁶ cm/s

Cc1ccc(S(=O)(=O)NC2CCCCC2)cc1
Papp: 206 ×10⁻⁶ cm/s

CCn1c(=O)cc(OCC(=O)N2CCN(c3cccc(Cl)c3)CC2)c2ccccc21
Papp: 941 ×10⁻⁶ cm/s

CCCc1cc(C)[nH]c(=O)c1CNC(=O)c1cc(-c2ccc(N3CCN(C(C)C)CC3)nc2)cc2c1cnn2C(C)C
Papp: > 1000 ×10⁻⁶ cm/s

c1ccc(Nc2nc(NCc3ccco3)c3ccccc3n2)cc1
Papp: 930 ×10⁻⁶ cm/s

Cc1cc(C)nc(NC(=S)N2CCN(c3cccc([N+](=O)[O-])c3)CC2)c1
Papp: > 1000 ×10⁻⁶ cm/s

CC(C)(C)OC(=O)N1CCN(c2ccc(NCc3ccc(-c4ccc(C#N)cc4)o3)cc2)CC1
Papp: 338 ×10⁻⁶ cm/s

Fc1ccc(-c2ccc(Nc3nc(-c4ccncc4)nc4ccccc34)cc2F)c(F)c1
Papp: 19.5 ×10⁻⁶ cm/s

CCN1CCCC1CNC(=O)c1cc(S(=O)(=O)CC)c(N)cc1OC (stereo not given)
Papp: < 1 ×10⁻⁶ cm/s

O=S(=O)(Nc1ccccc1)c1ccc(NCc2ccc(Br)cc2O)cc1
Papp: 537 ×10⁻⁶ cm/s

Nc1ccccc1CNc1ccc(S(=O)(=O)Nc2nccs2)cc1
Papp: 1.09 ×10⁻⁶ cm/s

C[C@@H]1CC(=O)Nc2cccc(-c3cnn(C(C)(C)C)c3)c2N1
Papp: 56.5 ×10⁻⁶ cm/s

CN(C)c1ccc(-c2cc[nH]c(=O)c2N)cc1
Papp: 116 ×10⁻⁶ cm/s

CN(C)C(=O)c1cc2cnc(Nc3ccc(N4CCNCC4)cn3)nc2n1C1CCCC1
Papp: 138 ×10⁻⁶ cm/s

Cc1ccc(-c2cc(C(=O)Nc3ccc(-n4cncn4)cc3)c3ccccc3n2)cc1C
Papp: < 1 ×10⁻⁶ cm/s

Cc1cc(N)c2cc(NC(=O)Nc3ccc4nc(C)cc(N)c4c3)ccc2n1
Papp: < 1 ×10⁻⁶ cm/s

Nc1ncc(S(=O)(=O)N2CCOCC2)s1
Papp: 15.5 ×10⁻⁶ cm/s

Nc1ncnc2c1c(-c1cnc3[nH]ccc3c1)nn2C1CCCC1
Papp: > 1000 ×10⁻⁶ cm/s

Cc1sc2c(c1C)C(c1ccc(Cl)cc1)=N[C@@H](CC(=O)OC(C)(C)C)c1nnc(C)n1-2
Papp: > 1000 ×10⁻⁶ cm/s

O=C(CCCN1CCC2(CC1)C(=O)N(Cc1cccc(F)c1)CN2c1ccccc1)c1ccc(F)cc1
Papp: 21 ×10⁻⁶ cm/s

COC(=O)C1=C(C)NC(C)=C(C(=O)OCCCN2CCC(c3ccccc3)(c3ccccc3)CC2)C1c1cccc([N+](=O)[O-])c1 (stereo not given)
Papp: 34.1 ×10⁻⁶ cm/s

CCOc1ccc(CCNC(=O)c2cc3sccc3n2Cc2ccccn2)cc1OCC
Papp: > 1000 ×10⁻⁶ cm/s

O=C(Nc1ccc(N2CCC(N3CCCCC3)CC2)c(C(=O)O)c1)c1ccc(Br)cc1
Papp: < 1 ×10⁻⁶ cm/s

Cc1ncc2c(c1CNC(=O)Cn1cnc3ccccc3c1=O)CCNC2
Papp: 59.6 ×10⁻⁶ cm/s

CN(Cc1ccc(/C=C/C(=O)NO)cc1)CC12CC3CC(CC(C3)C1)C2
Papp: > 1000 ×10⁻⁶ cm/s

O=C(NC[C@H]1Cn2c(-c3ccc(Cl)cc3)cnc2CO1)C1CCCC1
Papp: 108 ×10⁻⁶ cm/s

COc1cccc(-n2ncc3c2CCCC3NC(=O)c2ccccn2)c1 (stereo not given)
Papp: > 1000 ×10⁻⁶ cm/s

O=C(NCCc1ccccn1)C1CC(=O)N(c2n[nH]c3cc(Br)ccc23)C1 (stereo not given)
Papp: < 1 ×10⁻⁶ cm/s

CCc1ccc(S(=O)(=O)Nc2cnccc2C(=O)Nc2nc(-c3ccccc3)cs2)cc1
Papp: 300 ×10⁻⁶ cm/s

O=C(Nc1nc(-c2ccccc2)cs1)c1ccncc1NS(=O)(=O)c1ccc(C(F)(F)F)cc1
Papp: 316 ×10⁻⁶ cm/s

NC1CCC(Nc2nc(Nc3ccc(C(=O)N4CCCCC4)cc3)c3ncn(-c4cccc(F)c4)c3n2)CC1 (stereo not given)
Papp: 21.8 ×10⁻⁶ cm/s

COc1ccnc(NC(=S)N2CCN(c3cccc(C(F)(F)F)n3)CC2)c1
Papp: > 1000 ×10⁻⁶ cm/s

O=C(c1cccs1)c1nonc1C(=O)c1cccs1
Papp: 806 ×10⁻⁶ cm/s

NC(=O)C1CCN(c2nc(-c3cc4ccccc4o3)cs2)CC1
Papp: 66.2 ×10⁻⁶ cm/s

Cc1ccc(S(=O)(=O)Nc2ccc(F)cc2C(=O)Nc2nc(-c3ccccc3)cs2)cc1
Papp: 21.4 ×10⁻⁶ cm/s

Cc1ccc(S(=O)(=O)Nc2ccccc2C(=O)Nc2ncc(-c3ccccc3)s2)cc1
Papp: 125 ×10⁻⁶ cm/s

Cc1ccc(NS(=O)(=O)c2c(C)[nH]c(C)c2C(=O)N2CCCC2)cc1Cl
Papp: 387 ×10⁻⁶ cm/s

O=C(Nc1nc(-c2ccccc2)cs1)c1ccncc1NS(=O)(=O)c1ccccc1
Papp: 501 ×10⁻⁶ cm/s

Cc1ccc2oc3c(c(=O)c2c1)C(c1cccc(O)c1)N(CCCN1CCOCC1)C3=O (stereo not given)
Papp: 103 ×10⁻⁶ cm/s

COc1ccc(C2Nc3ccccc3C(=O)N2Cc2ccco2)cc1COc1ccc(NC(C)=O)cc1 (stereo not given)
Papp: 329 ×10⁻⁶ cm/s

N#Cc1ccc(N2N=C3c4ccc(C(=O)O)cc4CC[C@@H]3[C@@H]2C2CCCC2)cc1Cl
Papp: 272 ×10⁻⁶ cm/s

COc1cc(Nc2nc(-c3ccncc3)nc3ccccc23)ccc1Cl
Papp: 19.8 ×10⁻⁶ cm/s

C#CCOc1ccc(-c2nnc(Nc3ccc(NC(C)=O)cc3)c3ccccc23)cc1
Papp: 502 ×10⁻⁶ cm/s

N=c1c2c(ncn1-c1ccccc1)Oc1ccc3ccccc3c1C2c1ccc2c(c1)CCO2 (stereo not given)
Papp: 282 ×10⁻⁶ cm/s

Oc1ccc(CNc2ccccc2F)c2cccnc12
Papp: 34 ×10⁻⁶ cm/s

Cc1ccc2oc(NC3=NC4(CCCC4)C4=C(CCCC4=O)N3)nc2c1
Papp: 543 ×10⁻⁶ cm/s

Cc1ccc(S(=O)(=O)Nc2ccccc2C(=O)Nc2ccc(-c3ccccc3)nn2)cc1
Papp: > 1000 ×10⁻⁶ cm/s

COc1ccccc1Nc1ccnc(N2CCN(C(=O)c3ccc(F)cc3)CC2)n1
Papp: > 1000 ×10⁻⁶ cm/s

CC(C)Oc1cccc(-c2cnc(N3CCC(C(N)=O)CC3)s2)c1
Papp: 810 ×10⁻⁶ cm/s

CCOc1ccc(CCNC(=O)c2cc3ccccc3n2C)cc1OCC
Papp: > 1000 ×10⁻⁶ cm/s

COc1cccc(C(=O)Nc2nc(-c3nnn(-c4ccccc4C(F)(F)F)c3C)ns2)c1
Papp: 383 ×10⁻⁶ cm/s

CCCCCn1c(=O)[nH]c2cc(C(=O)NCCCN3CCCCC3)ccc2c1=O
Papp: 27.5 ×10⁻⁶ cm/s

COc1cccc(NC(=O)c2cccc3c(=O)c4c([nH]c23)CCCC4)c1
Papp: > 1000 ×10⁻⁶ cm/s

C[C@@H](O)CNC(C)(C)CC(=O)N[C@@H]1CCc2ccccc2N(Cc2ccc(-c3ccccc3-c3nn[nH]n3)cc2)C1=O
Papp: < 1 ×10⁻⁶ cm/s

COc1cc2nccc(Oc3ccc(NC(=O)Nc4cc(C)on4)c(Cl)c3)c2cc1OC
Papp: 328 ×10⁻⁶ cm/s

COC(=O)c1ccc(NC(=O)c2nc3ccccc3n(C)c2=O)cc1
Papp: 350 ×10⁻⁶ cm/s

Cc1cc(-c2nnc3n2CCCCC3)c(C)n1-c1ccccc1
Papp: 581 ×10⁻⁶ cm/s

COc1ccc(OC)c(-c2nnc3n2N=C(c2c(OC)cccc2OC)CS3)c1
Papp: 617 ×10⁻⁶ cm/s

Fc1cnc(-c2ccccc2C(F)F)nc1NCC1CCN(c2cnccn2)C1 (stereo not given)
Papp: > 1000 ×10⁻⁶ cm/s

CCCCn1cnc2cc(NC(=O)c3cc(OC)c(OC)c(OC)c3)ccc21
Papp: 693 ×10⁻⁶ cm/s

O=C1CCc2cc(S(=O)(=O)Nc3ccc(F)c(Cl)c3)c(F)cc2N1
Papp: 861 ×10⁻⁶ cm/s

COc1ccc(S(=O)(=O)N(CC(=O)Nc2ccc(C)cc2)c2ccc(C)cc2)cc1OC
Papp: > 1000 ×10⁻⁶ cm/s

CC(=O)c1ccc(-c2csc(N3CCC(C(N)=O)CC3)n2)cc1
Papp: 300 ×10⁻⁶ cm/s
